# According to patent US4963573A, “[[[(3-pyridinyl)methylen]amino]oxy]alkanoic acids and esters” (Janssen Pharmaceutica N.V., priority 1989, dated 1990):
# Like-named read-outs stand apart in the source and are kept apart here.
# Tests used:
# [1] = test system: thromboxane A2 biosynthesis; assay: Platelet malondialdehyde (MDA) production in vivo, male Wistar rats; details: Rattus norvegicus, read-out: MDA production in vivo ED50-values
# Description: MDA production by platelets in plasma, as an indicator of the thromboxane A2 biosynthesis, was evaluated spectrofluometrically. […] After 30 min at 37° C., the reaction was terminated by the addition of 1 ml of 10% (w/v) trichloroacetic acid. […] The fluorescence of the samples at 553 nm after excitation at 510 nm was measured. The results were calculated as nM MDA/10^8 platelets/30 min and were expressed as a percentage inhibition produced by the compounds relative to the formation of MDA after thrombin stimulation in the solvent. For in vitro experiments, human platelets in plasma were used. Percentage inhibition was calculated versus the solvent value.
# For in vivo experiments male Wistar rats were fasted overnight. 2 Hours before blood sampling they were treated with the test compound solution/suspension or the solvent. […] ED50 -values were determined by probit analysis.
# [2] = test system: thromboxane A2 biosynthesis; assay: Platelet malondialdehyde (MDA) production in vitro, human platelets in plasma, thrombin stimulated; assay type: cell-based; details: human platelet-rich plasma, thrombin 20 N.I.H. U/ml, 10 min pre-incubation at 37° C., 30 min reaction, 50% inhibition vs solvent
# Description: MDA production by platelets in plasma, as an indicator of the thromboxane A2 biosynthesis, was evaluated spectrofluometrically. […] After 30 min at 37° C., the reaction was terminated by the addition of 1 ml of 10% (w/v) trichloroacetic acid. After isolation of the supernatant by centrifugation at 320 g for 20 min, the thiobarbituric acid reaction for MDA was performed using acid-hydrolyzed 1,1,3,3-tetramethoxypropane as a standard. The fluorescence of the samples at 553 nm after excitation at 510 nm was measured. The results were calculated as nM MDA/10^8 platelets/30 min and were expressed as a percentage inhibition produced by the compounds relative to the formation of MDA after thrombin stimulation in the solvent. For in vitro experiments, human platelets in plasma were used. Percentage inhibition was calculated versus the solvent value.
# [3] = male Wistar rats fasted overnight, treated 2 hours before blood sampling, 50% inhibition relative to MDA values with solvent, probit analysis
Structure (SMILES),"ED50 [1, 3]",IC50 [2],ED50 ([1]; 2 h),"IC50 ([2]; Homo sapiens, Platelet)"
O=C(O)CCCCON=C(c1cccnc1)c1ccc2ccccc2c1 [Compound 78],0.044 mg/kg,240 nM,,
Cc1cccc(C(=NOCCCCC(=O)O)c2cccnc2)c1 [Compound 89],0.02 mg/kg,43 nM,,
"O=C([O-])CCCCO/N=C(/c1cccnc1)c1cccc(C(F)(F)F)c1.[Na+] [Compound 121, sodium (E)-5-[[[(3-pyridinyl)[3-(trifluoromethyl)phenyl]methylen]amino]oxy]pentanoate]",,,0.015 mg/kg,14 nM
O=C(O)CCCCO/N=C(/c1cccnc1)c1cccs1 [Compound 76],0.068 mg/kg,120 nM,,
"O=C(O)CCCCO/N=C(/c1cccnc1)c1cccc2ccccc12 [Compound 93, (E)-5-[[[(1-naphthalenyl)(3-pyridinyl)methylen]amino]oxy]pentanoic acid]",0.014 mg/kg,10 nM,,
O=C(O)CCCCO/N=C(\Cc1ccccc1)c1cccnc1 [Compound 68],1 mg/kg,75 nM,,
"O=C(O)CCCCO/N=C(/c1cccnc1)c1cccc2ccccc12 [Compound 123, sodium (E)-5-[[[(1-naphthalenyl)(3-pyridinyl)methylen]amino]oxy]pentanoate]",,,,18 nM
CCOC(=O)CCCCO/N=C(\c1ccccc1)c1cccnc1 [Compound 9],,< 100 nM,,
O=C(O)CCCCO/N=C(\c1ccccc1)c1cccnc1 [Compound 65],0.045 mg/kg,66 nM,,
Cc1ccc(C(=NOCCCCC(=O)O)c2cccnc2)cc1 [Compound 72],0.041 mg/kg,120 nM,,
CCCC/C(=N\OCCCCC(=O)O)c1cccnc1 [Compound 86],> 0.16 mg/kg,63 nM,,
COC(OC)c1ccccc1/C(=N\OCCCCC(=O)O)c1cccnc1 [Compound 87],> 0.16 mg/kg,24 nM,,
COc1ccc(C(=NOCCCCC(=O)O)c2cccnc2)cc1 [Compound 69],0.17 mg/kg,100 nM,,
"O=Cc1cccc(C(=NOCCCCC(=O)O)c2cccnc2)c1 [Compound 116, (E+Z)-5-[[[(3-formylphenyl)(3-pyridinyl)methylen]amino]oxy]pentanoic acid]",,100 nM,,
O=C(O)CCCCON=C(c1cccnc1)c1cccnc1 [Compound 70],1.2 mg/kg,180 nM,,
O=C(O)CCCCON=C(c1cccnc1)c1cccc2ccccc12 [Compound 74],0.023 mg/kg,23 nM,,
COc1ccc(C(=NOCCCCC(=O)O)c2cccnc2)cc1OC [Compound 82],0.056 mg/kg,110 nM,,
"Cc1cccc(/C(=N\OCCCCC(=O)O)c2cccnc2)c1 [Compound 90, (E)-5-[[[(3-methylphenyl)(3-pyridinyl)methylen]amino]oxy]pentanoic acid]",0.013 mg/kg,24 nM,,
O=C(O)CCCCON=C(c1cccnc1)c1ccccc1C(F)(F)F [Compound 94],,32 nM,,
O=C(O)CCCCO/N=C(/c1cccnc1)c1ccsc1 [Compound 84],0.17 mg/kg,110 nM,,
"O=C(O)CCCCO/N=C(/c1cccnc1)c1cccc(C(F)(F)F)c1 [Compound 63, (E)-5-[[[(3-pyridinyl)[3-(trifluoromethyl)phenyl]methylen]amino]oxy]pentanoic acid]",0.012 mg/kg,22 nM,,
"O=C(O)CCCCON=C(c1ccccc1)c1cccnc1 [Compound 4, (E+Z)-5-[[[phenyl(3-pyridinyl)methylen]amino]oxy]pentanoic acid]",0.059 mg/kg,100 nM,,
O=C(O)CCCCON=C(c1ccc(F)cc1)c1cccnc1 [Compound 73],0.2 mg/kg,300 nM,,
"O=C([O-])CCCCO/N=C(\c1ccccc1)c1cccnc1.[Na+] [Compound 122, sodium (E)-5-[[[phenyl(3-pyridinyl)methylen]amino]oxy]pentanoate]",,,< 0.16 mg/kg,81 nM
O=C(O)CCCCO/N=C(/c1cccnc1)c1cc(C(F)(F)F)cc(C(F)(F)F)c1 [Compound 92],0.01 mg/kg,33 nM,,
